# From patent US8263649B2, “Benzofuran type derivatives, a composition comprising the same for treating or preventing cognitive dysfunction and the use thereof” (Medifron DBT Co., Ltd., priority 2006, dated 2012)
# Tested on: A 40
# Experiment: ELISA of beta-amyloid in brain of transgenic mice (A 40)
# Format: in vivo, mouse
# Settings: APPswe mice treated for 4 months; no significance statistically; FIG. 13
# Procedure: 13 months old dementia model male mice expressing APPswe was used in the experiment and the mice was divided into two groups, i.e., control group consisting of 2 mice and test groups consisting of 4 mice. Each mouse had been fed with the feed mixed with 3 mg of compound IIb everyday for 4 months.
# At the end of behavior test, the brain of mouse was delivered and the left hemisphere was frozen to be used as a cryo-section material. The remaining right hemisphere was used to measure the formation of beta-amyloid according to the procedure disclosed in the literature (J. Neurosci, 21(12), pp 4183-4187, 2001). […]
# The amount of beta-amyloid in the brains of mice was determined by […] ELISA method according to the manual provided from Biosource Co and ELISA kit (KHB 3482, Biosource Co.) was used in the experiment. […] The level of color reaction was determined at 450 nm using by spectrophotometer and the absolute amount of beta-amyloid in the samples was transformed by comparing with standard value. The brain of the mice treated with the compound 18b for 4 months was delivered and the amount of beta-amyloid in supernatant obtained from the dissolved brain tissue was determined according to ELISA method.
smiles,measurement,value
"COCCCc1ccc2oc(-c3ccc(OC)c(OC)c3)cc2c1 [Compound 18b, 2-(3,4-dimethoxy-phenyl)-5-(3-methoxy-propyl)-benzofuran]",amount of A 40 in brain (ELISA),slightly reduced
